Experimental data from patent publication US7932270B2 (Cytokinetics, Inc., priority 2006, dated 2011).

Target: T1, chicken gizzard smooth muscle myosin subfragment-1 chemically crosslinked to cardiac or skeletal actin (Gallus gallus, UniProt P10587)
T1 construct: chicken gizzard smooth muscle myosin subfragment-1; from tissue; host or cells: chicken gizzard
Experiment: Smooth muscle myosin ATPase dose response assay (pyruvate kinase/horseradish peroxidase/pyruvate oxidase-coupled, amplex red fluorescence)
Assay type: biochemical
Settings: read-out: IC50 Arithmetic Mean
How it was run: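 Inhibition is measured in a peroxidase/pyruvate oxidase-linked format at pH 7.00 and 22° C, 0.15 mM ATP final. Myosin input is titrated to a target turnover since active fraction differs between preparations.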

T1 sequence (P02607 2-151): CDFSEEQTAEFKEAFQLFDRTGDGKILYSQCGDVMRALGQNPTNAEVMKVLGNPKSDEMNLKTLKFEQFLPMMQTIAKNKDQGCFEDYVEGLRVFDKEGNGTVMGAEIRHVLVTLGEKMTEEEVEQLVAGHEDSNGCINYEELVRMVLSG
T1 sequence (P10587 84-789): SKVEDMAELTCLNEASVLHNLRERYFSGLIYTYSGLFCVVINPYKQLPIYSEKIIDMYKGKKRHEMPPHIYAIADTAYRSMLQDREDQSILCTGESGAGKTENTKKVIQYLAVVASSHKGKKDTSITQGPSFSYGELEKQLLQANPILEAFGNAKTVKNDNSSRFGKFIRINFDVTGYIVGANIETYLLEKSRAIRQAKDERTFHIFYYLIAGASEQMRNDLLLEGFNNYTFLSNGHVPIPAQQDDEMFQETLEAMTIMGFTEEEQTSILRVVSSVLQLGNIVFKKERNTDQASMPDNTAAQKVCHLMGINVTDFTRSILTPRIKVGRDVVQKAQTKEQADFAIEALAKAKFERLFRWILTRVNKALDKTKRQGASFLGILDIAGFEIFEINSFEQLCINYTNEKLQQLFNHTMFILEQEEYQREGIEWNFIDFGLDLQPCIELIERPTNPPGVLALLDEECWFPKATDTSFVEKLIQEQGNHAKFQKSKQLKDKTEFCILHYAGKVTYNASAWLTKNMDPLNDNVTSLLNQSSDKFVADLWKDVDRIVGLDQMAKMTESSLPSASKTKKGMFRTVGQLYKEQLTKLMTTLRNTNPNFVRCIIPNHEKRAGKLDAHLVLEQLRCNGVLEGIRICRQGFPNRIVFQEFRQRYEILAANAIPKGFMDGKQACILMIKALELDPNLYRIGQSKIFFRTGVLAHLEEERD

Structure (SMILES) | IC50 [nM]
N#Cc1ccccc1-c1ccc(C(=O)NC[C@H]2CCCCN2C(=O)CCN)c(NCCc2cccc(F)c2)n1 [N-{[(2R)-1-(3-aminopropanoyl)(2-piperidyl)]methyl}(6-(2-cyanophenyl)-2-{[2-(3-fluorophenyl)ethyl]amino}(3-pyridyl))carboxamide] | 155
CC(C)(C)OC(=O)NCCCN1CCCC1CNC(=O)c1ccc(-c2ccccc2C#N)nc1NCCc1cccc(F)c1 (stereo not shown) [N-[(1-{3-[(tert-butoxy)carbonylamino]propyl}pyrrolidin-2-yl)methyl](6-(2-cyanophenyl)-2-{[2-(3-fluorophenyl)ethyl]amino}(3-pyridyl))carboxamide] | 2080
CN1CCN(C(=O)CCN)[C@@H](CNC(=O)c2ccc(-c3ccccc3C#N)nc2NCCc2cccc(F)c2)C1 [N-{[(2S)-1-(3-aminopropanoyl)-4-methylpiperazin-2-yl]methyl}(6-(2-cyanophenyl)-2-{[2-(3-fluorophenyl)ethyl]amino}(3-pyridyl))carboxamide] | 2390
CC(=O)N1CCC(CNC(=O)c2ccc(-c3ccccc3)nc2NCCc2ccccn2)CC1 [N-[(1-acetyl(4-piperidyl))methyl]{6-phenyl-2-[(2-(2-pyridyl)ethyl)amino](3-pyridyl)}carboxamide] | 96700
COc1ccc(C#N)c(-c2ccc(C(=O)NCc3cccnc3)c(NCCc3cccc(F)c3)n2)c1 [(6-(2-cyano-5-methoxyphenyl)-2-{[2-(3-fluorophenyl)ethyl]amino}(3-pyridyl))-N-(3-pyridylmethyl)carboxamide] | 41
COC(=O)[C@@H](C)CNC(=O)c1cc(F)c(-c2cnn(C)c2)nc1NCCc1cccc(F)c1 [methyl (2S)-3-[(5-fluoro-2-{[2-(3-fluorophenyl)ethyl]amino}-6-(1-methylpyrazol-4-yl)(3-pyridyl))carbonylamino]-2-methylpropanoate] | 141
N#Cc1ccccc1-c1ccc(C(=O)NCc2ncco2)c(NCCc2cccc(F)c2)n1 [(6-(2-cyanophenyl)-2-{[2-(3-fluorophenyl)ethyl]amino}(3-pyridyl))-N-(1,3-oxazol-2-ylmethyl)carboxamide] | 40
CN(C)C(=O)CNC(=O)c1ccc(-c2ccccc2)nc1NCCc1ccccc1 [N,N-dimethyl-2-({6-phenyl-2-[(2-phenylethyl)amino](3-pyridyl)}carbonylamino)acetamide] | 30300
O=C(NCc1cccnc1)c1ccc(-c2cc[nH]n2)nc1NCCc1cccc(F)c1 [(2-{[2-(3-fluorophenyl)ethyl]amino}-6-pyrazol-3-yl(3-pyridyl))-N-(3-pyridylmethyl)carboxamide] | 124
CC(=O)Nc1ccc(-c2ccc(C(=O)NCc3cccnc3)c(NCCc3ccccn3)n2)cc1 [N-(4-{6-[(2-(2-pyridyl)ethyl)amino]-5-[N-(3-pyridylmethyl)carbamoyl]-2-pyridyl}phenyl)acetamide] | 1220
NC(=O)c1ccccc1-c1ccc(C(=O)NCc2cccnc2)c(NCCc2cccc(F)c2)n1 [2-(6-{[2-(3-fluorophenyl)ethyl]amino}-5-[N-(3-pyridylmethyl)carbamoyl]-2-pyridyl)benzamide] | 16400
Cn1cc(-c2ccc(C(=O)NCc3ccn(CCN)n3)c(NCCc3cccc(F)c3)n2)cn1 [N-{[1-(2-aminoethyl)pyrazol-3-yl]methyl}(2-{[2-(3-fluorophenyl)ethyl]amino}-6-(1-methylpyrazol-4-yl)(3-pyridyl))carboxamide] | 1860
COc1cccc(CCNc2nc(-c3ccccc3)ccc2C(=O)NCc2cccnc2)c1 [(2-{[2-(3-methoxyphenyl)ethyl]amino}-6-phenyl(3-pyridyl))-N-(3-pyridylmethyl)carboxamide] | 269
Cn1cc(-c2nc(NCCc3cccc(F)c3)c(C(=O)NCc3cccnc3CNC(=O)OC(C)(C)C)cc2F)cn1 [N-[(2-{[(tert-butoxy)carbonylamino]methyl}(3-pyridyl))methyl](5-fluoro-2-{[2-(3-fluorophenyl)ethyl]amino}-6-(1-methylpyrazol-4-yl)(3-pyridyl))carboxamide] | 388
Cn1cc(-c2ccc(C(=O)NC[C@H]3CCCN3C(=O)CCCNC(=O)OC(C)(C)C)c(NCCc3cccc(F)c3)n2)cn1 [N-[((2R)-1-{4-[(tert-butoxy)carbonylamino]butanoyl}pyrrolidin-2-yl)methyl](2-{[2-(3-fluorophenyl)ethyl]amino}-6-(1-methylpyrazol-4-yl)(3-pyridyl))carboxamide] | 3650
O=C(NCc1cccnc1)c1ccc(-c2ccccc2)nc1NCC(O)c1cccc(F)c1 (stereo not shown) [(2-{[2-(3-fluorophenyl)-2-hydroxyethyl]amino}-6-phenyl(3-pyridyl))-N-(3-pyridylmethyl)carboxamide] | 559
OC(CNCc1ccccn1)c1ccc(-c2ccccc2)nc1NCCc1cccc(F)c1 (stereo not shown) [1-(2-{[2-(3-fluorophenyl)ethyl]amino}-6-phenyl(3-pyridyl))-2-[(2-pyridylmethyl)amino]ethan-1-ol] | 19400

Structure (SMILES) | IC50 [nM]
CCOC(=O)CNCC(O)c1ccc(-c2ccccc2)nc1NCCc1cccc(F)c1 (stereo not shown) [ethyl 2-{[2-(2-{[2-(3-fluorophenyl)ethyl]amino}-6-phenyl(3-pyridyl))-2-hydroxyethyl]amino}acetate] | 15100
NCCCN1C(=O)CC[C@@H]1CNC(=O)c1cc(F)c(-c2cn[nH]c2)nc1NCCc1cccc(F)c1 [N-{[(2R)-1-(3-aminopropyl)-5-oxopyrrolidin-2-yl]methyl}(5-fluoro-2-{[2-(3-fluorophenyl)ethyl]amino}-6-pyrazol-4-yl(3-pyridyl))carboxamide] | 66
CS(=O)(=O)N1CCC[C@@H]1CNC(=O)c1ccc(-c2ccccc2C#N)nc1NCCc1cccc(F)c1 [N-{[(2R)-1-(methylsulfonyl)pyrrolidin-2-yl]methyl}(6-(2-cyanophenyl)-2-{[2-(3-fluorophenyl)ethyl]amino}(3-pyridyl))carboxamide] | 1450
Cc1cc(C(=O)NC[C@H]2CCC(=O)N2CCCN)c(NCCc2cccc(F)c2)nc1-c1cnn(C)c1 [N-{[(2R)-1-(3-aminopropyl)-5-oxopyrrolidin-2-yl]methyl}(2-{[2-(3-fluorophenyl)ethyl]amino}-5-methyl-6-(1-methylpyrazol-4-yl)(3-pyridyl))carboxamide] | 577
O=C(NCc1cccnc1)c1ccc(-c2csc(CO)c2)nc1NCCc1cccc(F)c1 [(2-{[2-(3-fluorophenyl)ethyl]amino}-6-[5-(hydroxymethyl)(3-thienyl)](3-pyridyl))-N-(3-pyridylmethyl)carboxamide] | 73
C=Cc1ccccc1-c1ccc(C(=O)NCc2cccnc2)c(NCCc2ccccn2)n1 [{2-[(2-(2-pyridyl)ethyl)amino]-6-(2-vinylphenyl)(3-pyridyl)}-N-(3-pyridylmethyl)carboxamide] | 5340
N#Cc1ccccc1-c1ccc(C(=O)NCC2CCN(C(=O)CN)C2)c(NCCc2cccc(F)c2)n1 (stereo not shown) [N-{[1-(2-aminoacetyl)pyrrolidin-3-yl]methyl}(6-(2-cyanophenyl)-2-{[2-(3-fluorophenyl)ethyl]amino}(3-pyridyl))carboxamide] | 203
CC(O)[C@H](C)CNC(=O)c1cc(F)c(-c2cnn(C)c2)nc1NCCc1cccc(F)c1 (stereo partly drawn) [N-((2R)-3-hydroxy-2-methylbutyl)(5-fluoro-2-{[2-(3-fluorophenyl)ethyl]amino}-6-(1-methylpyrazol-4-yl)(3-pyridyl))carboxamide] | 283
N#Cc1ccccc1-c1ccc(C(=O)NCCCC(=O)O)c(NCCc2cccc(F)c2)n1 [4-[(6-(2-cyanophenyl)-2-{[2-(3-fluorophenyl)ethyl]amino}-3-pyridyl)carbonylamino]butanoic acid] | 627
O=C(NCc1cccnc1)c1ccc(-c2ccc(C(=O)NCc3cccnc3)c(NCCc3cccc(F)c3)n2)nc1NCCc1cccc(F)c1 [[2-{[2-(3-fluorophenyl)ethyl]amino}-6-(6-{[2-(3-fluorophenyl)ethyl]amino}-5-[N-(3-pyridylmethyl)carbamoyl](2-pyridyl))(3-pyridyl)]-N-(3-pyridylmethyl)carboxamide] | 30600
Cn1cc(-c2nc(NCCc3cccc(F)c3)c(C(=O)NC[C@H]3CCCN3C(=O)CCCNC(=O)OC(C)(C)C)cc2F)cn1 [N-[((2R)-1-{4-[(tert-butoxy)carbonylamino]butanoyl}pyrrolidin-2-yl)methyl](5-fluoro-2-{[2-(3-fluorophenyl)ethyl]amino}-6-(1-methylpyrazol-4-yl)(3-pyridyl))carboxamide] | 483
CC(C)(C)OC(=O)NCCCN1C(=O)CCC[C@@H]1CNC(=O)c1ccc(-c2ccccc2C#N)nc1NCCc1cccc(F)c1 [N-[((2R)-1-{3-[(tert-butoxy)carbonylamino]propyl}-6-oxo(2-piperidyl))methyl](6-(2-cyanophenyl)-2-{[2-(3-fluorophenyl)ethyl]amino}(3-pyridyl))carboxamide] | 392
N#Cc1ccccc1-c1ccc(C(=O)N[C@@H](CCCN)C(N)=O)c(NCCc2cccc(F)c2)n1 [N-((1S)-4-amino-1-carbamoylbutyl)(6-(2-cyanophenyl)-2-{[2-(3-fluorophenyl)ethyl]amino}(3-pyridyl))carboxamide] | 5400
N#Cc1ccccc1-c1ccc(C(=O)NCc2ccc(CN)cc2)c(NCCc2cccc(F)c2)n1 [N-{[4-(aminomethyl)phenyl]methyl}(6-(2-cyanophenyl)-2-{[2-(3-fluorophenyl)ethyl]amino}(3-pyridyl))carboxamide] | 277
COC(=O)[C@H](C)NC(=O)c1ccc(-c2ccccc2C#N)nc1NCCc1cccc(F)c1 [methyl (2S)-2-[(6-(2-cyanophenyl)-2-{[2-(3-fluorophenyl)ethyl]amino}(3-pyridyl))carbonylamino]propanoate] | 6980
O=C(NCc1cccnc1)c1ccc(-c2cnoc2)nc1NCCc1cccc(F)c1 [(2-{[2-(3-fluorophenyl)ethyl]amino}-6-isoxazol-4-yl(3-pyridyl))-N-(3-pyridylmethyl)carboxamide] | 49800
N#Cc1ccccc1-c1ccc(C(=O)NCC2CCN(C(=O)CCCN)CC2)c(NCCc2cccc(F)c2)n1 [N-{[1-(4-aminobutanoyl)(4-piperidyl)]methyl}(6-(2-cyanophenyl)-2-{[2-(3-fluorophenyl)ethyl]amino}(3-pyridyl))carboxamide] | 6010
